Organism: Rattus norvegicus
Assay: Open TG-GATES - Regimen: Daily Repeat
Format: toxicity, organism-based, Sprague-Dawley
Set-up: regimen Daily Repeat, gender Male, age 6 weeks
Conditions: in vivo, po, 100 mg/kg, route gavage, dose level Low; for APTT / Bas / Eos / Fbg / Hb / Ht / Lym / MCH / MCHC / MCV / Mono / Neu / PT / Plat / RBC / Ret / WBC: tissue Blood; for KIDNEY_L / KIDNEY_R / KIDNEY_TOTAL: tissue Kidney; for LIVER: tissue Liver; for A/G / ALP / ALT / AST / BUN / CRE / Ca / Cl / DBIL / GLC / IP / LDH / Na / PL / RALB / TBIL / TC / TG / TP / gamma-GTP: tissue Plasma

NC(N)=Nc1nc(CSCCC(N)=NS(N)(=O)=O)cs1 [FAMOTIDINE]
TERMINAL_BW (72 h, time 3 day): 224.5 g | APTT (72 h, time 3 day): 19.8 s | Bas (72 h, time 3 day): 0% | Eos (72 h, time 3 day): 1% | Fbg (72 h, time 3 day): 225.2 mg/dL | Hb (72 h, time 3 day): 13.3 g/dL | Ht (72 h, time 3 day): 37.3% | Lym (72 h, time 3 day): 78.4% | MCH (72 h, time 3 day): 22.1 pg | MCHC (72 h, time 3 day): 35.6% | MCV (72 h, time 3 day): 62.1 fL | Mono (72 h, time 3 day): 2.6% | Neu (72 h, time 3 day): 15.6% | PT (72 h, time 3 day): 12 s | Plat (72 h, time 3 day): 124.1 x10_4/uL | RBC (72 h, time 3 day): 600.6 x10_4/ul | Ret (72 h, time 3 day): 5.7% | WBC (72 h, time 3 day): 87.5 x10_2/uL | KIDNEY_L (72 h, time 3 day): 1 g | KIDNEY_R (72 h, time 3 day): 1 g | KIDNEY_TOTAL (72 h, time 3 day): 2 g | LIVER (72 h, time 3 day): 10.2 g | A/G (72 h, time 3 day): 1.6 | ALP (72 h, time 3 day): 1126.4 IU/L | ALT (72 h, time 3 day): 30.2 IU/L | AST (72 h, time 3 day): 63.6 IU/L | BUN (72 h, time 3 day): 16.6 mg/dL | CRE (72 h, time 3 day): 0.4 mg/dL | Ca (72 h, time 3 day): 10.7 mg/dL | Cl (72 h, time 3 day): 102.8 meq/L | DBIL (72 h, time 3 day): 0.086 mg/dL | GLC (72 h, time 3 day): 190.4 mg/dL | IP (72 h, time 3 day): 7.2 mg/dL | LDH (72 h, time 3 day): 190.6 IU/L | Na (72 h, time 3 day): 139 meq/L | PL (72 h, time 3 day): 136.8 mg/dL | RALB (72 h, time 3 day): 3.3 g/dL | TBIL (72 h, time 3 day): 0.1 mg/dL | TC (72 h, time 3 day): 73.8 mg/dL | TG (72 h, time 3 day): 63.2 mg/dL | TP (72 h, time 3 day): 5.5 g/dL | gamma-GTP (72 h, time 3 day): 1.2 IU/L | TERMINAL_BW ([…], time 7 day): 259.3 g | TERMINAL_BW ([…], time 14 day): 310.4 g | TERMINAL_BW ([…], time 28 day): 389.2 g | APTT ([…], time 7 day): 20.9 s | Bas ([…], time 7 day): 0% | Eos ([…], time 7 day): 1% | Fbg ([…], time 7 day): 217.6 mg/dL | Hb ([…], time 7 day): 13.5 g/dL | Ht ([…], time 7 day): 37.6% | Lym ([…], time 7 day): 78.6% | MCH ([…], time 7 day): 22 pg | MCHC ([…], time 7 day): 35.9% | MCV ([…], time 7 day): 61.5 fL | Mono ([…], time 7 day): 2.8% | Neu ([…], time 7 day): 16.4% | PT ([…], time 7 day): 12.1 s | Plat ([…], time 7 day): 116.2 x10_4/uL | RBC ([…], time 7 day): 612 x10_4/ul | Ret ([…], time 7 day): 5.2% | WBC ([…], time 7 day): 95.1 x10_2/uL | APTT ([…], time 14 day): 22.2 s | Bas ([…], time 14 day): 0% | Eos ([…], time 14 day): 0.6% | Fbg ([…], time 14 day): 217.4 mg/dL | Hb ([…], time 14 day): 14.4 g/dL | Ht ([…], time 14 day): 41.5% | Lym ([…], time 14 day): 77.4% | MCH ([…], time 14 day): 20.9 pg | MCHC ([…], time 14 day): 34.8% | MCV ([…], time 14 day): 60 fL | Mono ([…], time 14 day): 2.4% | Neu ([…], time 14 day): 17.8% | PT ([…], time 14 day): 12.6 s | Plat ([…], time 14 day): 111.6 x10_4/uL | RBC ([…], time 14 day): 691.8 x10_4/ul | Ret ([…], time 14 day): 4% | WBC ([…], time 14 day): 94.5 x10_2/uL | APTT ([…], time 28 day): 21.5 s | Bas ([…], time 28 day): 0% | Eos ([…], time 28 day): 1.6% | Fbg ([…], time 28 day): 219.4 mg/dL | Hb ([…], time 28 day): 15.5 g/dL | Ht ([…], time 28 day): 43.7% | Lym ([…], time 28 day): 81.2% | MCH ([…], time 28 day): 19.4 pg | MCHC ([…], time 28 day): 35.5% | MCV ([…], time 28 day): 54.9 fL | Mono ([…], time 28 day): 1.6% | Neu ([…], time 28 day): 14.2% | PT ([…], time 28 day): 12.8 s | Plat ([…], time 28 day): 96.6 x10_4/uL | RBC ([…], time 28 day): 796 x10_4/ul | Ret ([…], time 28 day): 2.2% | WBC ([…], time 28 day): 90.2 x10_2/uL | KIDNEY_L ([…], time 7 day): 1.1 g | KIDNEY_R ([…], time 7 day): 1.1 g | KIDNEY_TOTAL ([…], time 7 day): 2.2 g | KIDNEY_L ([…], time 14 day): 1.2 g | KIDNEY_R ([…], time 14 day): 1.2 g | KIDNEY_TOTAL ([…], time 14 day): 2.5 g | KIDNEY_L ([…], time 28 day): 1.3 g | KIDNEY_R ([…], time 28 day): 1.4 g | KIDNEY_TOTAL ([…], time 28 day): 2.7 g | LIVER ([…], time 7 day): 12.4 g | LIVER ([…], time 14 day): 13.4 g | LIVER ([…], time 28 day): 15.7 g | A/G ([…], time 7 day): 1.5 | ALP ([…], time 7 day): 940.8 IU/L | ALT ([…], time 7 day): 30.4 IU/L | AST ([…], time 7 day): 67 IU/L | BUN ([…], time 7 day): 16.4 mg/dL | CRE ([…], time 7 day): 0.4 mg/dL | Ca ([…], time 7 day): 10.7 mg/dL | Cl ([…], time 7 day): 103 meq/L | DBIL ([…], time 7 day): 0.098 mg/dL | GLC ([…], time 7 day): 182.8 mg/dL | IP ([…], time 7 day): 7 mg/dL | LDH ([…], time 7 day): 205.2 IU/L | Na ([…], time 7 day): 140.8 meq/L | PL ([…], time 7 day): 151 mg/dL | RALB ([…], time 7 day): 3.4 g/dL | TBIL ([…], time 7 day): 0.2 mg/dL | TC ([…], time 7 day): 78.6 mg/dL | TG ([…], time 7 day): 98.2 mg/dL | TP ([…], time 7 day): 5.6 g/dL | gamma-GTP ([…], time 7 day): 1.2 IU/L | A/G ([…], time 14 day): 1.5 | ALP ([…], time 14 day): 918.4 IU/L | ALT ([…], time 14 day): 38 IU/L | AST ([…], time 14 day): 64.4 IU/L | BUN ([…], time 14 day): 15.2 mg/dL | CRE ([…], time 14 day): 0.5 mg/dL | Ca ([…], time 14 day): 10.5 mg/dL | Cl ([…], time 14 day): 104 meq/L | DBIL ([…], time 14 day): 0.096 mg/dL | GLC ([…], time 14 day): 196.2 mg/dL | IP ([…], time 14 day): 7 mg/dL | LDH ([…], time 14 day): 181 IU/L | Na ([…], time 14 day): 140.6 meq/L | PL ([…], time 14 day): 141.2 mg/dL | RALB ([…], time 14 day): 3.3 g/dL | TBIL ([…], time 14 day): 0.2 mg/dL | TC ([…], time 14 day): 67 mg/dL | TG ([…], time 14 day): 111.4 mg/dL | TP ([…], time 14 day): 5.6 g/dL | gamma-GTP ([…], time 14 day): 1.6 IU/L | A/G ([…], time 28 day): 1.3 | ALP ([…], time 28 day): 577.4 IU/L | ALT ([…], time 28 day): 31.8 IU/L | AST ([…], time 28 day): 59.6 IU/L | BUN ([…], time 28 day): 15.8 mg/dL | CRE ([…], time 28 day): 0.6 mg/dL | Ca ([…], time 28 day): 9.9 mg/dL | Cl ([…], time 28 day): 103.4 meq/L | DBIL ([…], time 28 day): 0.074 mg/dL | GLC ([…], time 28 day): 241.8 mg/dL | IP ([…], time 28 day): 7.1 mg/dL | LDH ([…], time 28 day): 132.8 IU/L | Na ([…], time 28 day): 140.8 meq/L | PL ([…], time 28 day): 121.2 mg/dL | RALB ([…], time 28 day): 3.3 g/dL | TBIL ([…], time 28 day): 0.1 mg/dL | TC ([…], time 28 day): 57.8 mg/dL | TG ([…], time 28 day): 91 mg/dL | TP ([…], time 28 day): 5.9 g/dL | gamma-GTP ([…], time 28 day): 1.2 IU/L

— ChEMBL document CHEMBL3885861, “Open TG-GATES”
